Measurements: patent US20040039530A1, “Pharmacokinetic tool and method for predicting metabolism of a compound in a mammal” (priority 2003, published 2004)

Assay: Hepatocyte assay: concentration versus time data of parent compound, fitted for Km, Vmax and Kd
Procedure: Traditionally, initial experiments were performed to get a “ball park” number around the Km, then additional studies performed “near” that concentration. A data analyst, or fitting expert, then took the data and determined the Km and Vmax. Some expertise is required to be able to interpret the initial studies and then to fit the data to determine Km. […] Especially preferred concentrations are 0.4, 2, 10, 50, 125 and 250 μM.
Equation 1 is the equation that incorporates transport and makes the assumption that the changes in concentration with time cannot be fully explained using the Michaelis-Menten equation alone. Kd·C is the transport term where Kd is the first order rate constant and C is the concentration outside of the hepatocyte or cell. dC/dt is the rate of metabolism, Vmax is the maximum possible rate of metabolism and Km is the Michaelis-Menten constant defined as concentration where dC/dt equals ½*Vmax. [formula]
The best fit lines and simulated data are obtained using a minimization algorithm capable of determining Vmax, Km, and Kd values that provide minimum deviation of the simulated data from the experimental data. In this example the minimization algorithms were completed using the computer based application, Kinetica®.
Briefly, the minimization algorithms uses the main function “mrqmin” that relies on several other functions to complete the analysis. This function assignees different initial conditions to fitted variables and picks the best set of results based on the minimal value of the computed “sum of squares”. Some statistical information can be collected in this routine as well. The “mrqmin” function performs one iteration of Marquardt method. Algorithmically, it is the same as listed in Numerical Recipes with modifications to parameter input, output and exchanges, and some modifications to intermediate computations. The “mrqmin” calls “mrqcof” function for some intermediate computations. […]
Goodness of fit is determined by evaluation of % CV, and percent unchanged parent compounds remaining at 240 minutes at 0.4 μM.

Oc1ccc2c3c1O[C@H]1[C@@H](O)CC[C@@]4(O)[C@@H](C2)N(CC2CCC2)CC[C@]314 [Nalbuphine]
Km (Initial concentrations, hepatocyte assay): 12.2 µM
Km (Std (standardized) concentrations, hepatocyte assay): 10.9 µM
Km (determined by non-linear fitting and minimization, compound-specific initial concentrations (Table 9)): 10 to 50 µM
